In US20040186089A1 (priority 2001, published 2004):
≈ marks a conversion by molar mass, not a printed value. Where “and” joins values, the source holds several entries; their conditions need not be identical. Equal values may be shown once.

How the values were obtained:
Bacillus anthracis [1] = conditions: cited from earlier work
[2] = test system: Bacillus anthracis ATCC 14578; format: cell-based; conditions: for MIC: unit assumed
Bacillus thuringiensis [3] = conditions: cited from earlier work
Bacillus thuringiensis [4] = format: cell-based
Bacillus cereus = format: cell-based
Bacillus anthracis [5] = conditions: in vivo; cited from earlier work

Compound	susceptibility of Bacillus anthracis (Bacillus anthracis [1])	MIC [2]	other results
O=C(N[C@H](CO)[C@H](O)c1ccc([N+](=O)[O-])cc1)C(Cl)Cl [chloramphenicol]	susceptible		
CN(C)[C@@H]1C(O)=C(C(N)=O)C(=O)[C@@]2(O)C(O)=C3C(=O)c4c(O)cccc4[C@@](C)(O)[C@H]3C[C@@H]12 [Tetracycline]		0.064 µg/mL (≈ 0.144 µM)	
CO[C@@]1(NC(=O)Cc2cccs2)C(=O)N2C(C(=O)O)=C(COC(N)=O)CS[C@@H]21 [Cefoxitin]		6 µg/mL (≈ 14 µM)	
gentamicin	susceptible		
CC[C@H]1OC(=O)[C@H](C)[C@@H](O[C@H]2C[C@@](C)(OC)[C@@H](O)[C@H](C)O2)[C@H](C)[C@@H](O[C@@H]2O[C@H](C)C[C@H](N(C)C)[C@H]2O)[C@](C)(O)C[C@@H](C)C(=O)[C@H](C)[C@@H](O)[C@]1(C)O [erythromycin]	susceptible		
CC1(C)S[C@@H]2[C@H](NC(=O)[C@H](N)c3ccccc3)C(=O)N2[C@H]1C(=O)O [ampicillin]			resistance of Bacillus thuringiensis (Bacillus thuringiensis [3]): resistant
Penicillin	susceptible	0.047 µg/mL	resistance of Bacillus thuringiensis (Bacillus thuringiensis [3]): resistant
CCn1cc(C(=O)O)c(=O)c2cc(F)c(N3CCNCC3)cc21 [Norfloxacin]			Disk Diffusion zone (Bacillus thuringiensis [4]): 27 mm and 24 mm; Disk Diffusion zone (Bacillus cereus): 22 mm and 23 mm and 21 mm and 25 mm
C[C@@H](O)[C@H]1C(=O)N2C(C(=O)O)=C(SCCN=CN)C[C@H]12 [Imipenem, [5R-[5α,6α(R*)]]-6-(1-hydroxyethyl)-3-[[2-[(iminomethyl)amino]ethyl]thio]-7-oxo-1-azabicyclo[3.2.0]hept-2-ene-2-carboxylic acid monohydrate]		0.047 µg/mL	
C[C@@H](O)[C@H]1C(=O)N2C(C(=O)O)=C(S[C@@H]3CN[C@H](C(=O)Nc4cccc(C(=O)O)c4)C3)[C@H](C)[C@H]12 [Ertapenem, (1R,5S,6S,8R,2′S,4′S)-2-(2-(3-carboxyphenylcarbamoyl)pyrrolidin-4-ylthio)-6-(1-hydroxyethyl)-1-methylcarbapenem-3-carboxylic acid]		0.032 µg/mL (≈ 0.0673 µM)	susceptibility of Bacillus anthracis [2]: susceptible
O=C(O)c1cn(C2CC2)c2cc(N3CCNCC3)c(F)cc2c1=O [Ciprofloxacin]		0.064 µg/mL (≈ 0.193 µM)	resistance of Bacillus thuringiensis (Bacillus thuringiensis [3]): not resistant; response of people (Bacillus anthracis [5]): responded well
